# Patent publication US20050069544A1, “Pharmaceutical composition and a method of treatment” (priority 1998, published 2005)
# “Also recorded” adds a separate entry of the source.
# Key:
# [1] = tested on: PBMC from RhD alloimmunised donors; test: Cell proliferation assay (3H-thymidine) of PBMC from RhD alloimmunised donors stimulated with RhD peptides; type: cell-based, human; conditions: peptide 20 μg/ml, 5 days
# Method: Five complete panels of 68 15-mer peptides, with 5 or 10 amino acid overlaps, were synthesized (Multiple Peptide Service, Cambridge Research Biochemicals, Cheshire, UK and Dept. Of Biochemistry, University of Bristol, UK), corresponding to the sequences of the 30 kD Rh proteins associated with expression of the RhD or RhcE/ce/Ce/CE blood group antigens respectively (Tables 1 to 5). An additional three peptide sequences is added to the panel of RhD peptides to account for the Ile to Met substitution described earlier (numbered from 69 to 71). The amino acid sequences for each of these proteins were deduced from cDNA analyses (FIG. 1). In order to ensure purity, each panel was synthesized by fluorenylmethoxycarbonyl chemistry on resin using a base-labile linker, rather than by conventional pin technology, and randomly selected peptides were screened for purity by HPLC and amino acid analysis.
# Peripheral blood mononuclear cells (PBMC) from donors or patients were separated from fresh blood samples using Ficoll-Hypaque. The donors and patients had become alloimmunised with RhD-positive blood either through pregnancy, a blood transfusion or through immunization with the relevant blood.
# PBMC were cultured in 100 μl volumes in microtitre plates at a concentration of 1.25×10^6 cells/ml in an Alpha Modification of Eagle's Medium (ICN Flow, Bucks UK) supplemented with 5% autologous serum, 4 mM L-Glutamine (Gibco, Paisley, UK), 100 U/ml sodium benzylpenicillin G (Sigma), 100 μg/ml streptomycin sulphate (Sigma), 5×10^−5M 2-mercaptoethanol (Sigma) and 20 mM HEPES pH7,2 (Sigma). All plates were incubated at 37° C. in a humidified atmosphere of 5% CO2/95% air. The cell proliferation in cultures was estimated from the incorporation of ^3H-Thymidine in triplicate wells 5 days after stimulation with antigen as described previously. Proliferation results are presented either as the mean CPM+/−SD of the triplicate samples, or as a stimulation index (SI), expressing the ratio of mean CPM in stimulated versus unstimulated control cultures. An S1>3 with CPM>1000 is interpreted as representing a positive response.
# [2] = tested on: CD3+ CD4+ T-cells of RhD-alloimmunised donors; test: Three colour flow cytometry of CD3, CD4 and intracellular IFN-γ or IL-10 in PBMC from RhD-alloimmunised donors; type: cell-based, human; conditions: CD3+ gated, representative alloimmune donor, 5 days; for proportion of CD4+ IL-10+ T-cells: unstimulated cultures 2.4%; for proportion of CD4+ IFN-γ+ T-cells: unstimulated cultures 4.2%
# Method: (§1) The secretion of cytokines identified in Example 1.3 by T-helper cells is confirmed by flow cytometery analysis. Simultaneous measurement of surface molecules CD3 and CD4 and intracellular cytokines IFN-γ or IL-10 was carried out using three colour flow cytometry analysis in PBMC, isolated from RhD-alloimmunised donors, cultured with either no antigen or RhD peptide for five days after stimulation. All analysis was carried out using Expo v2 analysis software (applied Cytometry Systems). The CD3+ T-cells were gated open and the numbers of IFN-γ+ and CD4+ cells were assessed. In all donors tested there was a significant increase in the proportion of CD4+ IFN-γ+CD3+ T-cells to at least one of the RhD peptides tested. In the representative example shown in FIGS. 12A to 12L it can be seen that the proportion of CD4+ IFN-γ+cells was 4.2% in unstimulated cultures (FIG. 12E). […] The IL-10 and CD4+ expression was also assessed on CD3+ gated population of T-cells. In PBMC cultures isolated from the alloimmune donor shown, there was an increase in the proportion of CD4+ IL-10+T-cells from 2.4% in unstimulated PBMC cultures (FIG. 12I) to 6.5% in culture stimulated with RhD peptide 13 (FIG. 12J) to 6.2% in cultures stimulated with RhD peptide 17 (FIG. 12K) and 5.9% with RhD peptide 28 (FIG. 12L).
# [3] = tested on: HLA-DR15 transgenic mice; test: Tolerisation in vivo to RhD protein in HLA-DR15 transgenic mice
# Method: HLA-DR15 transgenic mice were immunised twice with 2 mg/ml purified RhD protein. The first subcutaneous injection was followed 14 days later by an intraperitoneal injection. Mice were sacrificed 14 days after the final injection. The spleen was removed and blood collected by cardiac puncture.
# Fourteen days before RhD immunisation (as above) 25 μl of 2 mg/ml soluble RhD peptides were administered by the intranasal route.
# Fourteen days before RhD immunisation (as above) 25 μl of 2 mg/ml soluble RhD peptides were administered by the subcutaneous route.
# Splenocytes were homogenised and a single cell suspension was isolated over 40 μm mesh filters (Becton Dickinson) and resuspended to 1.25×10^6 cells/ml in the Alpha Modification of Eagle's Medium (ICN Flow, Bucks UK) supplemented with 5% autologous serum, 4 mM L-Glutamine (Gibco, Paisley, UK), 100 U/ml sodium benzylpenicillin G (Sigma), 100 μg/ml streptomycin sulphate (Sigma), 5×10^−5 2-mercaptoethanol (Sigma) and 20 mM HEPES pH7.2 (Sigma). All plates were incubated at 37° C. in a humidified atmosphere of 5% CO2/95% air. The cell proliferation in cultures was estimated from the incorporation of ^3H-thymidine (Amersham) in triplicate wells 5 days after stimulation with antigen. Proliferation results are presented either as the mean CPM±SD of the triplicate samples, or as a stimulation index (SI) expressing the ratio of mean CPM in stimulated versus unstimulated control cultures. An SI>3 with CPM>500 is interpreted as representing a positive response.
# Round bottomed microtitre plates (Nunc, Roskilde, Denmark) were blocked in phosphate buffered saline pH 7.4 (PBS) containing 0.2% bovine serum albumin (BSA), before addition of 50 μl 2% v/v washed human D-positive RBC. Test sera were incubated at 50 μl per well with triplicate RBC samples for 1 hour at 37° C. and washed three times in PBS-BSA before fixing for 30 minutes in 0.15% glutaraldehyde (Sigma, Dorset, UK) to prevent lysis of the cells in the alkaline conditions required later in the test. The fixed RBC were transferred to fresh, pre-blocked, 96-well plates and washed before incubation with 50 μl per well 1 μg/ml goat anti-mouse IgG γ-chain specific antibody (Sigma) or goat anti-mouse IgM μ-chain specific antibody (Sigma) for 1 hour at 37° C. After washing, the plates were incubated with 50 μl per well 1 μg/ml rabbit anti-goat IgG alkaline phosphatase (Sigma) for 1 hour at 37° C., washed, and 100 μl of phosphatase substrate solution was then incubated in each well for 1 hour at 37° C. After pelleting of the RBC by centrifugation, 50 μl of each supernatant was transferred into the wells of fresh, flat-bottomed microtitre plates (Nunc) and the absorbance measured at 405 nm, with 492 nm as a reference, using a multiscan plate reader (Labsystems, Basingstoke, UK). Each result is expressed as the mean of triplicate wells. Inter-assay variation was controlled for by including previously tested RBC samples on each plate.
# It is known from other animal models (Elson C J & Barker R N. Helper T-cells in antibody mediated, organ specific autoimmunity. Curr Opin Immunol, 2000; 12:664-669) that mucosal administration of immunodominant peptides which induce an immune response when given with adjuvant by the parenteral route will inhibit responsiveness, and induce antigen specific tolerance. To test the effectiveness of peptides containing immunodominant allo-RhD helper epitopes in preventing antibody response to the RhD protein, HLA-DR15 transgenic mice were used for the in vivo testing of these peptides as most alloimmunised donors responding to RhD bear this MHC class II allele.
# [4] = tested on: CD3+ CD4+ T-helper cells of AIHA patients; test: Flow cytometry of CD3, CD4 and intracellular cytokines in PBMC from AIHA patients; type: cell-based, human; conditions: AIHA patient; for CD3+ CD4+ population of T-helper cells: FIGS. 23A to 23D; for CD4+ T-helper cells expressing intracellular IFN-γ: FIGS. 23E to 23H
# Method: as §1
# The secretion of cytokines identified in Example 2.3 by T-cells is confirmed utilising the experiments mentioned in Example 1.4, which were repeated using PBMC isolated from patients with AIHA.
# [5] = tested on: PBMC from RhD-alloimmunised donors; test: celELISA of cytokine production (IL-10, TGF-β1) by PBMC from RhD alloimmunised donors; type: cell-based, human
# Method: Cultured T-cells are stimulated with each of the epitopes given in Table 1 and after 5 days the responding cells were transferred to flat-bottomed microtitre plates (96-well Nunc-Immuno Maxisorp) coated with […] per well of monoclonal anti-cytokine capture antibody diluted in 0.05M alkaline carbonate coating buffer pH 9.6. Unbound capture antibody was removed by two washes with HBSS and non-specific binding potential blocked by incubation with 200 μl per well of phosphate buffered saline, pH 7.4 (PBS containing 3% BSA).
# Five days after stimulation, lymphocyte cultures were mixed to resuspend the cells and duplicate 100 μl aliquots were transferred into wells coated with the respective capture antibody specific for IFN-γ, IL-10 or TGF-β. The plates coated with capture antibodies and layered by lymphocytes were then incubated for a further 24 hours at 37° C. in a humidified atmosphere of 5% CO2 and 95% air. After this incubation the PBMC were removed by four washes with 0.2% Tween/PBS. One hundred microlitre aliquots of the appropriate biotinylated monoclonal detection antibody in 0.2% BSA/PBS were then added to the wells and incubated at room temperature for 45 minutes.
# After six washes with 0.5% Tween/PBS, 100 μl of 1:100,000 ExtrAvidin-alkaline phosphatase conjugate (Sigma) was then added to each of the wells and incubated at room temperature for 30 minutes. The ExtrAvidin conjugate was removed by eight washes with 0.2% Tween/PBS, and the plates developed using 100 μl per well of p-nitrophenyl phosphate (Sigma) 1.0 mg/ml in 0.05M carbonate alkaline buffer pH9.6. The absorbance at 405 nm was then measured using a Multiscan plate reader (Labsystems Basingstoke UK).
# Cytokine secretion was measured by interpolation from a standard curve generated by incubating duplicate wells with doubling dilutions of recombinant human IFN-γ or IL-10 or TGF-β (Pharmingen). The standard curves were modelled by a smoothed cubic spline function applied to the absorbance reading and the cytokine concentrations after a quasilogarithmic transformation, where: quasiloge(z)=loge[z+{square root}[z^2+1]).
# Using celELISA technique, the 68 RhD peptide panel was screened for the ability to induce IL-10 and TGF-β production for PBMC from a total of 19 samples from 12 different alloimmune donors. PMBC from 10 out of the 12 RhD-alloimmunised donors could produce IL-10 to at least one of the RhD peptides on at least one occasion, with a total of 194 significant IL-10 responses to the RhD peptides between all the donors. The RhD peptides that induced significant TGF-β or IL-10 and proliferative responses from PBMC in all the samples screened are summarised in FIGS. 10 and 11.
# [6] = peptide intranasal 14 days before RhD immunisation
# [7] = nasal administration of peptide prior to RhD immunisation
# [8] = peptide parenteral (subcutaneous) before RhD immunisation
sequence,measurement,setting,value
AYFGLSVAWCLPKPL (Residue 177-191 RhD; listed as Homo sapiens) [peptide 28],proliferative T-cell response to RhD peptides,[1],most commonly targeted
same,proportion of CD4+ IL-10+ T-cells,[2],5.9%
same,proportion of CD4+ IFN-γ+ T-cells,[2],10.2%
same,RhD-specific proliferation by splenocytes after prior tolerisation,[3]; [6],reduction in the RhD-specific proliferation
FLSQFPSGKVVITLF (Residue 97-111 RhD; listed as Homo sapiens) [peptide 13],proliferative T-cell response to RhD peptides,[1],most commonly targeted
same,proportion of CD4+ IL-10+ T-cells,[2],6.5%
same,RhD-specific proliferation by splenocytes after prior tolerisation,[3]; [6],reduction in the RhD-specific proliferation
GALFLWMFWPSFNSA (Residue 212-226 RhD; listed as Homo sapiens) [compound 35],CD3+ CD4+ population of T-helper cells,[4],expansion of a CD3+ CD4+population of T-helper cells
same,CD4+ T-helper cells expressing intracellular IFN-γ,[4],expansion of CD4+ T-helper cells that express intracellular IFN-γ
QDLTVMAAIGLGFLT (Residue 52-66 RhD; listed as Homo sapiens) [peptide 6],proliferative T-cell response to RhD peptides,[1],most commonly targeted
same,RhD-specific proliferation by splenocytes after prior tolerisation,[3]; [6],reduction in the RhD-specific proliferation
same,RhD-specific proliferation by splenocytes after prior tolerisation,"[3]; peptide intranasal 14 days before RhD immunisation, listed as p6",reduced T-cell response to RhD protein
same,"serum anti-human RBC antibody, rr red blood cells",[3]; peptide intranasal before RhD immunisation,reduction of anti-human RBC antibody
same,IL-10 production by PBMC,[5]; FIG. 3 and FIG. 10,commonly induce the production of IL-10; also recorded: induce IL-10 production in the absence of a proliferative response or the production of IFN-γ or IL-4
SIRLATMSALSVLIS (Residue 112-126 RhD; listed as Homo sapiens) [peptide 16],proliferative T-cell response to RhD peptides,[1],most commonly targeted
same,IL-10 production by draining lymph node cells,[3]; [7],increase
same,TGF-β1 production by draining lymph node cells,[3]; [7],increase
same,TGF-β1 production by PBMC,[5]; FIG. 3 and FIG. 11,commonly induce the production of TGF-β1
TMSALSVLISVDAVL (Residue 117-131 RhD; listed as Homo sapiens) [peptide 17],proliferative T-cell response to RhD peptides,[1],most commonly targeted; also recorded: induces significant PBMC proliferation
same,percentage of donors in whom a proliferative response was elicited,"[1]; SI>3 with CPM>1000 positive, FIG. 6",70%
same,proportion of CD4+ IL-10+ T-cells,[2],6.2%
same,proportion of CD4+ IFN-γ+ T-cells,[2],20.3%
same,RhD-specific proliferation by splenocytes after prior tolerisation,[3]; [6],reduction in the RhD-specific proliferation
VGAGNGMIGFQVLLS (Residue 352-366 RhD; listed as Homo sapiens) [compound 60],CD3+ CD4+ population of T-helper cells,[4],expansion of a CD3+ CD4+population of T-helper cells
same,CD4+ T-helper cells expressing intracellular IFN-γ,[4],expansion of CD4+ T-helper cells that express intracellular IFN-γ
same,RhD-specific proliferation by splenocytes after prior tolerisation,[3]; [8],reduced T-cell response to RhD protein
same,"serum anti-human RBC antibody, rr red blood cells",[3]; [8],no change
